Laboratory results published in article PMC7899551, “Phase 1 study of Z-endoxifen in patients with advanced gynecologic, desmoid, and hormone receptor-positive solid tumors” (Oncotarget, 2021).
Read-outs that look alike come from different tables or passages of the source.

Test: Plasma pharmacokinetics of Z-endoxifen (HPLC assay, non-compartmental analysis)
Assay type: in vivo, human
Conditions: human, plasma, po
Description: This was an open-label trial of Z-endoxifen in patients with advanced solid tumors (https://clinicaltrials.gov/ identifier: NCT01273168). Z-endoxifen-HCl was supplied by the Pharmaceutical Management Branch, National Cancer Institute, as 20 and 40 mg capsules; agent was administered orally once daily on a continuous schedule in 28-day cycles with a starting dose of 20 mg/day taken either 1 hour before or 2 hours after meals. Dose escalation followed a traditional 3+3 design in which patients were dose-escalated to the next dose level (DL) in cohorts of 3 patients until dose-limiting toxicity (DLT) was observed. DLT was defined as an adverse event that occurred during cycle 1, was thought to be related to study drug administration, and met one of the following criteria: grade ≥ 3 non-hematologic toxicities (except diarrhea, nausea and vomiting, alopecia, rising creatinine or electrolyte toxicities that resolved within 24 hours, or intolerable estrogen withdrawal symptoms) or grade ≥ 3 hematologic toxicities (except neutropenia lasting less than 5 days, lymphopenia, or anemia). Eight dose levels (DL1-8) were examined: 20, 40, 60, 100, 140, 200, 280, and 360 mg, respectively. Two patients at DL8 received the free base form of Z-endoxifen on day 1 rather than the hydrochloride salt to assess the pharmacokinetics of that formulation.
A 3-mL blood sample was collected in a K2 EDTA tube on day 1 of cycle 1 before drug administration and at the following times post-first dose: 0.5, 1, 2, 3, 4, 6, 8, and 24 hours. Samples were collected at the same time points on day 28 of cycle 1 for DL1-6 until a protocol amendment eliminated the requirement for these samples at the higher dose levels. Samples were wrapped in aluminum foil after collection to protect from light exposure. A 10-mL aliquot of urine was collected before agent administration on cycle 1 day 1, for 24 hours after dosing on day 1, and before drug administration on cycle 2 day 1; samples were refrigerated prior to analysis.
Plasma and urine concentrations of Z- and E-endoxifen were measured using a validated, post-column fluorescence derivatization HPLC assay. Non-compartmental pharmacokinetic parameters were calculated using WinNonlin version 7.0 (Pharsight Corp., Mountainview, CA, USA). A 2 μM Cmax target was established for day 28 plasma concentration. The amount of Z-endoxifen excreted in urine was measured over a 24-hour collection period.

In the case of `CC/C(=C(\c1ccc(O)cc1)c1ccc(OCCNC)cc1)c1ccccc1` [Z-endoxifen], the Cmax (20 mg/day, DL1 20 mg/day oral, day 28, mean, read-out: Cmax, Mean) is reported as 286 ng/mL, the Tmax (20 mg/day, DL1 20 mg/day oral, day 28, mean, read-out: Tmax, Mean) is reported as 0.7 h and the AUC(0-t) (40 mg, DL2 40 mg oral, day 1, individual patients, read-out: AUC(0-24h)) is reported as 1290 ng·h/mL. For the same compound, the Cmax (40 mg, DL2 40 mg oral, day 1, individual patients, read-out: Cmax) was 83.6 ng/mL, the AUC(0-t) (40 mg, DL2 40 mg oral, day 1, mean, read-out: AUC(0-24h), Mean) was 1650 ng·h/mL and the concentration at 24 h (40 mg, DL2 40 mg oral, day 1, mean, read-out: C24h, Mean) was 52.5 ng/mL. For the same compound, the Cmax (40 mg, DL2 40 mg oral, day 1, mean, read-out: Cmax, Mean) was 112 ng/mL, the AUC(0-t) (40 mg/day, DL2 40 mg/day oral, day 28, individual patients, read-out: AUC(0-24h)) was 5570 ng·h/mL and the half-life (40 mg/day, DL2 40 mg/day oral, day 28, individual patients, read-out: Adjusted Half-Life (converted)) was 39.3 h. For the same compound, the concentration at 24 h (40 mg/day, DL2 40 mg/day oral, day 28, individual patients, read-out: C24h) was 136 ng/mL, the Cmax (40 mg/day, DL2 40 mg/day oral, day 28, individual patients, read-out: Cmax) was 321 ng/mL and the AUC(0-t) (40 mg/day, DL2 40 mg/day oral, day 28, mean, read-out: AUC(0-24h), Mean) was 4760 ng·h/mL. For the same compound, the concentration at 24 h (40 mg/day, DL2 40 mg/day oral, day 28, mean, read-out: C24h, Mean) was 147 ng/mL, the Cmax (40 mg/day, DL2 40 mg/day oral, day 28, mean, read-out: Cmax, Mean) was 258 ng/mL and the Tmax (40 mg/day, DL2 40 mg/day oral, day 28, mean, read-out: Tmax, Mean) was 3.3 h. It also gave an AUC(0-t) (60 mg, DL3 60 mg oral, day 1, individual patients, read-out: AUC(0-24h)) of 1620 ng·h/mL, a concentration at 24 h (60 mg, DL3 60 mg oral, day 1, individual patients, read-out: C24h) of 89.7 ng/mL and a Cmax (60 mg, DL3 60 mg oral, day 1, individual patients, read-out: Cmax) of 89.7 ng/mL. The AUC(0-t) (60 mg, DL3 60 mg oral, day 1, mean, read-out: AUC(0-24h), Mean) was 2140 ng·h/mL, the concentration at 24 h (60 mg, DL3 60 mg oral, day 1, mean, read-out: C24h, Mean) was 82.7 ng/mL and the Cmax (60 mg, DL3 60 mg oral, day 1, mean, read-out: Cmax, Mean) was 122 ng/mL. It also gave a Tmax (60 mg, DL3 60 mg oral, day 1, mean, read-out: Tmax, Mean) of 12 h, an AUC(0-t) (60 mg/day, DL3 60 mg/day oral, day 28, mean, read-out: AUC(0-24h), Mean) of 8080 ng·h/mL and a concentration at 24 h (60 mg/day, DL3 60 mg/day oral, day 28, mean, read-out: C24h, Mean) of 345 ng/mL. It also gave a Cmax (60 mg/day, DL3 60 mg/day oral, day 28, mean, read-out: Cmax, Mean) of 417 ng/mL, a Tmax (60 mg/day, DL3 60 mg/day oral, day 28, mean, read-out: Tmax, Mean) of 10.8 h and an AUC(0-t) (100 mg, DL4 100 mg oral, day 1, individual patients, read-out: AUC(0-24h)) of 4640 ng·h/mL. For the same compound, the concentration at 24 h (100 mg, DL4 100 mg oral, day 1, individual patients, read-out: C24h) was 133 ng/mL, the Cmax (100 mg, DL4 100 mg oral, day 1, individual patients, read-out: Cmax) was 264 ng/mL and the Tmax (100 mg, DL4 100 mg oral, day 1, individual patients, read-out: Tmax) was 1 h. For the same compound, the AUC(0-t) (100 mg, DL4 100 mg oral, day 1, mean, read-out: AUC(0-24h), Mean) was 5000 ng·h/mL, the concentration at 24 h (100 mg, DL4 100 mg oral, day 1, mean, read-out: C24h, Mean) was 155 ng/mL and the Cmax (100 mg, DL4 100 mg oral, day 1, mean, read-out: Cmax, Mean) was 296 ng/mL. For the same compound, the Tmax (100 mg, DL4 100 mg oral, day 1, mean, read-out: Tmax, Mean) was 4.3 h, the AUC(0-t) (100 mg/day, DL4 100 mg/day oral, day 28, individual patients, read-out: AUC(0-24h)) was 13300 ng·h/mL and the half-life (100 mg/day, DL4 100 mg/day oral, day 28, individual patients, read-out: Adjusted Half-Life (converted)) was 36.8 h. It also gave a concentration at 24 h (100 mg/day, DL4 100 mg/day oral, day 28, individual patients, read-out: C24h) of 428 ng/mL, a Cmax (100 mg/day, DL4 100 mg/day oral, day 28, individual patients, read-out: Cmax) of 1300 ng/mL and a Tmax (100 mg/day, DL4 100 mg/day oral, day 28, individual patients, read-out: Tmax) of 2 h. For the same compound, the AUC(0-t) (100 mg/day, DL4 100 mg/day oral, day 28, mean (one patient), read-out: AUC(0-24h), Mean) was 13300 ng·h/mL, the half-life (100 mg/day, DL4 100 mg/day oral, day 28, mean (one patient), read-out: Adjusted Half-Life, Mean (converted)) was 36.8 h and the concentration at 24 h (100 mg/day, DL4 100 mg/day oral, day 28, mean (one patient), read-out: C24h, Mean) was 428 ng/mL. For the same compound, the Cmax (100 mg/day, DL4 100 mg/day oral, day 28, mean, read-out: Cmax, Mean) was 1010 ng/mL, the Tmax (140 mg, DL5 140 mg oral, day 1, individual patients, read-out: Tmax) was 3 h and the AUC(0-t) (140 mg, DL5 140 mg oral, day 1, mean, read-out: AUC(0-24h), Mean) was 9760 ng·h/mL. The concentration at 24 h (140 mg, DL5 140 mg oral, day 1, mean, read-out: C24h, Mean) was 311 ng/mL, the Cmax (140 mg, DL5 140 mg oral, day 1, mean, read-out: Cmax, Mean) was 610 ng/mL and the Tmax (140 mg, DL5 140 mg oral, day 1, mean, read-out: Tmax, Mean) was 4.3 h. For the same compound, the AUC(0-t) (140 mg/day, DL5 140 mg/day oral, day 28, individual patients, read-out: AUC(0-24h)) was 18200 ng·h/mL, the half-life (140 mg/day, DL5 140 mg/day oral, day 28, individual patients, read-out: Adjusted Half-Life (converted)) was 33.1 h and the concentration at 24 h (140 mg/day, DL5 140 mg/day oral, day 28, individual patients, read-out: C24h) was 598 ng/mL. It also gave a Cmax (140 mg/day, DL5 140 mg/day oral, day 28, individual patients, read-out: Cmax) of 973 ng/mL, a Tmax (140 mg/day, DL5 140 mg/day oral, day 28, individual patients, read-out: Tmax) of 1 h and an AUC(0-t) (140 mg/day, DL5 140 mg/day oral, day 28, mean, read-out: AUC(0-24h), Mean) of 17400 ng·h/mL. For the same compound, the half-life (140 mg/day, DL5 140 mg/day oral, day 28, mean, read-out: Adjusted Half-Life, Mean (converted)) was 30.6 h, the concentration at 24 h (140 mg/day, DL5 140 mg/day oral, day 28, mean, read-out: C24h, Mean) was 563 ng/mL and the Cmax (140 mg/day, DL5 140 mg/day oral, day 28, mean, read-out: Cmax, Mean) was 1110 ng/mL. It also gave an AUC(0-t) (200 mg, DL6 200 mg oral, day 1, individual patients, read-out: AUC(0-24h)) of 6340 ng·h/mL, a concentration at 24 h (200 mg, DL6 200 mg oral, day 1, individual patients, read-out: C24h) of 279 ng/mL and a Tmax (200 mg, DL6 200 mg oral, day 1, individual patients, read-out: Tmax) of 2 h. It also gave an AUC(0-t) (200 mg, DL6 200 mg oral, day 1, mean, read-out: AUC(0-24h), Mean) of 9220 ng·h/mL, a concentration at 24 h (200 mg, DL6 200 mg oral, day 1, mean, read-out: C24h, Mean) of 336 ng/mL and a Cmax (200 mg, DL6 200 mg oral, day 1, mean, read-out: Cmax, Mean) of 517 ng/mL. For the same compound, the half-life (200 mg/day, DL6 200 mg/day oral, day 28, individual patients, read-out: Adjusted Half-Life (converted)) was 34.8 h, the AUC(0-t) (200 mg/day, DL6 200 mg/day oral, day 28, mean, read-out: AUC(0-24h), Mean) was 30800 ng·h/mL and the concentration at 24 h (200 mg/day, DL6 200 mg/day oral, day 28, mean, read-out: C24h, Mean) was 1070 ng/mL. The Cmax (200 mg/day, DL6 200 mg/day oral, day 28, mean, read-out: Cmax, Mean) was 1640 ng/mL, the Cmax (280 mg, DL7 280 mg oral, day 1, individual patients, read-out: Cmax) was 888 ng/mL and the Tmax (280 mg, DL7 280 mg oral, day 1, individual patients, read-out: Tmax) was 3 h. For the same compound, the AUC(0-t) (280 mg, DL7 280 mg oral, day 1, mean, read-out: AUC(0-24h), Mean) was 15000 ng·h/mL, the concentration at 24 h (280 mg, DL7 280 mg oral, day 1, mean, read-out: C24h, Mean) was 468 ng/mL and the Cmax (280 mg, DL7 280 mg oral, day 1, mean, read-out: Cmax, Mean) was 930 ng/mL. For the same compound, the Tmax (360 mg, DL8 360 mg oral, day 1, individual patients, read-out: Tmax) was 2 h, the AUC(0-t) (360 mg, DL8 360 mg oral, day 1, mean (excluding patients 35 and 36), read-out: AUC(0-24h), Mean) was 20500 ng·h/mL and the concentration at 24 h (360 mg, DL8 360 mg oral, day 1, mean (excluding patients 35 and 36), read-out: C24h, Mean) was 676 ng/mL. For the same compound, the Cmax (360 mg, DL8 360 mg oral, day 1, mean (excluding patients 35 and 36), read-out: Cmax, Mean) was 1310 ng/mL, the Tmax (360 mg, DL8 360 mg oral, day 1, mean (excluding patients 35 and 36), read-out: Tmax, Mean) was 3.9 h and the AUC(0-t) (360 mg, HCl salt, 360 mg oral, day 2 (after free base on day 1), mean of patients 35 and 36, read-out: AUC(0–24 h), Mean) was 41600 ng·h/mL. The concentration at 24 h (360 mg, HCl salt, 360 mg oral, day 2 (after free base on day 1), mean of patients 35 and 36, read-out: C24 h, Mean) was 1470 ng/mL and the concentration at 24 h (360 mg, HCl salt, 360 mg oral, day 2 (after free base on day 1), patients 35 and 36 individually, read-out: C24 h) was 827 ng/mL.
